# Test results as given in patent US20230348442A1, “GALECTIN-3 INHIBITING 2-HYDROXYCYCLOALKANE-1-CARBAMOYL DERIVATIVES” (Idorsia Pharmaceuticals Ltd, priority 2020, published 2023).
# pIC50: −log10 of the molar value.
# Target: human Gal-3 (hGal-3) (Homo sapiens (Human), UniProt P17931)
# Test: competitive binding assay: binding of biotinylated hGal-3 to microplate-adsorbed asialofetuin (ASF), spectrophotometric
# Conditions: Activity on hGal-3; mean values of several measurements
# In short: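 Spectrophotometric readout (streptavidin-peroxidase, ABTS) of biotinylated galectin retained on ASF-coated wells. Biotinylated hGal-1 or hGal-3, 300-1000 ng/mL, co-incubated with test compound 3 h at 4° C, then washed. Mean IC50 from repeat runs.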
# Sequence of human Gal-3 (hGal-3) (P17931 whole entry): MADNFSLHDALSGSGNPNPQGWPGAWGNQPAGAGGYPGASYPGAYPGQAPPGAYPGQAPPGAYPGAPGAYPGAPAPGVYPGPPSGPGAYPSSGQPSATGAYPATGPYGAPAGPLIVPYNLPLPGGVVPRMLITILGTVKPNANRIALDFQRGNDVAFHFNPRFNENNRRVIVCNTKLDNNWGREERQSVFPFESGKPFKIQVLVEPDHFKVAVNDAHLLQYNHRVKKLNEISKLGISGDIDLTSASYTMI
row,pIC50,SMILES
1,6.93,"CO[C@@H]1[C@@H](n2cc(-c3cc(F)c(F)c(F)c3)nn2)[C@@H](O)[C@@H](CO)O[C@H]1C(=O)N(c1cc(C)cc(Cl)c1)[C@H]1CC[C@@H]1O [Example 2.1.3, (2R,3R,4S,5R,6R)-N-(3-chloro-5-methylphenyl)-5-hydroxy-N-((1S,2S)-2-hydroxycyclobutyl)-6-(hydroxymethyl)-3-methoxy-4-(4-(3,4,5-trifluorophenyl)-1H-1,2,3-triazol-1-yl)tetrahydro-2H-pyran-2-carboxamide]"
2,6.59,"CO[C@@H]1[C@@H](n2cc(-c3cc(F)c(F)c(F)c3)nn2)[C@@H](O)[C@@H](CO)O[C@H]1C(=O)N(c1cc(C)cc(Cl)c1)[C@@H]1CC[C@H]1O [Example 2.1.3R, (2R,3R,4S,5R,6R)-N-(3-chloro-5-methylphenyl)-5-hydroxy-N-((1R,2R)-2-hydroxycyclobutyl)-6-(hydroxymethyl)-3-methoxy-4-(4-(3,4,5-trifluorophenyl)-1H-1,2,3-triazol-1-yl)tetrahydro-2H-pyran-2-carboxamide]"
3,7.10,"CO[C@@H]1[C@@H](n2cc(-c3cc(F)c(F)c(F)c3)nn2)[C@@H](O)[C@@H](CO)O[C@H]1C(=O)N(c1cc(Cl)cc(C#N)c1)[C@H]1CC[C@@H]1O [Example 2.1.4, (2R,3R,4S,5R,6R)-N-(3-chloro-5-cyanophenyl)-5-hydroxy-N-((1S,2S)-2-hydroxycyclobutyl)-6-(hydroxymethyl)-3-methoxy-4-(4-(3,4,5-trifluorophenyl)-1H-1,2,3-triazol-1-yl)tetrahydro-2H-pyran-2-carboxamide]"
4,6.41,"CO[C@@H]1[C@@H](n2cc(-c3cc(F)c(F)c(F)c3)nn2)[C@@H](O)[C@@H](CO)O[C@H]1C(=O)N(c1cc(Cl)cc(C#N)c1)[C@@H]1CC[C@H]1O [Example 2.1.4R, (2R,3R,4S,5R,6R)-N-(3-chloro-5-cyanophenyl)-5-hydroxy-N-((1R,2R)-2-hydroxycyclobutyl)-6-(hydroxymethyl)-3-methoxy-4-(4-(3,4,5-trifluorophenyl)-1H-1,2,3-triazol-1-yl)tetrahydro-2H-pyran-2-carboxamide]"
5,7.35,"CO[C@@H]1[C@@H](n2cc(-c3cc(F)c(F)c(F)c3)nn2)[C@@H](O)[C@@H](CO)O[C@H]1C(=O)N(c1cc(Br)cc(C#N)c1)[C@H]1CC[C@@H]1O [Example 2.1.5, (2R,3R,4S,5R,6R)-N-(3-bromo-5-cyanophenyl)-5-hydroxy-N-((1S,2S)-2-hydroxycyclobutyl)-6-(hydroxymethyl)-3-methoxy-4-(4-(3,4,5-trifluorophenyl)-1H-1,2,3-triazol-1-yl)tetrahydro-2H-pyran-2-carboxamide]"
6,6.72,"CO[C@@H]1[C@@H](n2cc(-c3cc(F)c(F)c(F)c3)nn2)[C@@H](O)[C@@H](CO)O[C@H]1C(=O)N(c1cc(Br)cc(C#N)c1)[C@@H]1CC[C@H]1O [Example 2.1.5R, (2R,3R,4S,5R,6R)-N-(3-bromo-5-cyanophenyl)-5-hydroxy-N-((1R,2R)-2-hydroxycyclobutyl)-6-(hydroxymethyl)-3-methoxy-4-(4-(3,4,5-trifluorophenyl)-1H-1,2,3-triazol-1-yl)tetrahydro-2H-pyran-2-carboxamide]"
7,6.71,"CO[C@@H]1[C@@H](n2cc(-c3cc(F)c(F)c(F)c3)nn2)[C@@H](O)[C@@H](CO)O[C@H]1C(=O)N(c1cccc(I)c1)[C@H]1CC[C@@H]1O [Example 2.1.6, (2R,3R,4S,5R,6R)-5-hydroxy-N-((1S,2S)-2-hydroxycyclobutyl)-6-(hydroxymethyl)-N-(3-iodophenyl)-3-methoxy-4-(4-(3,4,5-trifluorophenyl)-1H-1,2,3-triazol-1-yl)tetrahydro-2H-pyran-2-carboxamide]"
8,6.63,"CO[C@@H]1[C@@H](n2cc(-c3cc(F)c(F)c(F)c3)nn2)[C@@H](O)[C@@H](CO)O[C@H]1C(=O)N(c1cccc(I)c1)[C@@H]1CC[C@H]1O [Example 2.1.6R, (2R,3R,4S,5R,6R)-5-hydroxy-N-((1R,2R)-2-hydroxycyclobutyl)-6-(hydroxymethyl)-N-(3-iodophenyl)-3-methoxy-4-(4-(3,4,5-trifluorophenyl)-1H-1,2,3-triazol-1-yl)tetrahydro-2H-pyran-2-carboxamide]"
9,6.97,"CO[C@@H]1[C@@H](n2cc(-c3cc(F)c(F)c(F)c3)nn2)[C@@H](O)[C@@H](CO)O[C@H]1C(=O)N(c1cccc(Br)c1)[C@H]1CC[C@@H]1O [Example 2.1.10, (2R,3R,4S,5R,6R)-N-(3-bromophenyl)-5-hydroxy-N-((1S,2S)-2-hydroxycyclobutyl)-6-(hydroxymethyl)-3-methoxy-4-(4-(3,4,5-trifluorophenyl)-1H-1,2,3-triazol-1-yl)tetrahydro-2H-pyran-2-carboxamide]"
10,6.69,"CO[C@@H]1[C@@H](n2cc(-c3cc(F)c(F)c(F)c3)nn2)[C@@H](O)[C@@H](CO)O[C@H]1C(=O)N(c1cccc(Br)c1)[C@@H]1CC[C@H]1O [Example 2.1.10R, (2R,3R,4S,5R,6R)-N-(3-bromophenyl)-5-hydroxy-N-((1R,2R)-2-hydroxycyclobutyl)-6-(hydroxymethyl)-3-methoxy-4-(4-(3,4,5-trifluorophenyl)-1H-1,2,3-triazol-1-yl)tetrahydro-2H-pyran-2-carboxamide]"
11,7.14,"CO[C@@H]1[C@@H](n2cc(-c3cc(F)c(F)c(F)c3)nn2)[C@@H](O)[C@@H](CO)O[C@H]1C(=O)N(c1cc(Br)cc(Br)c1)[C@H]1CC[C@@H]1O [Example 2.1.11, (2R,3R,4S,5R,6R)-N-(3,5-dibromophenyl)-5-hydroxy-N-((1S,2S)-2-hydroxycyclobutyl)-6-(hydroxymethyl)-3-methoxy-4-(4-(3,4,5-trifluorophenyl)-1H-1,2,3-triazol-1-yl)tetrahydro-2H-pyran-2-carboxamide]"
12,6.48,"CO[C@@H]1[C@@H](n2cc(-c3cc(F)c(F)c(F)c3)nn2)[C@@H](O)[C@@H](CO)O[C@H]1C(=O)N(c1cc(Br)cc(Br)c1)[C@@H]1CC[C@H]1O [Example 2.1.11R, (2R,3R,4S,5R,6R)-N-(3,5-dibromophenyl)-5-hydroxy-N-((1R,2R)-2-hydroxycyclobutyl)-6-(hydroxymethyl)-3-methoxy-4-(4-(3,4,5-trifluorophenyl)-1H-1,2,3-triazol-1-yl)tetrahydro-2H-pyran-2-carboxamide]"
13,6.66,"CO[C@@H]1[C@@H](n2cc(-c3cc(F)c(F)c(F)c3)nn2)[C@@H](O)[C@@H](CO)O[C@H]1C(=O)N(c1cc(C)cc(Br)c1)[C@@H]1CC[C@H]1O [Example 2.1.12R, (2R,3R,4S,5R,6R)-N-(3-bromo-5-methylphenyl)-5-hydroxy-N-((1R,2R)-2-hydroxycyclobutyl)-6-(hydroxymethyl)-3-methoxy-4-(4-(3,4,5-trifluorophenyl)-1H-1,2,3-triazol-1-yl)tetrahydro-2H-pyran-2-carboxamide]"
14,7.17,"COc1cc(-c2cn([C@H]3[C@@H](O)[C@@H](CO)O[C@@H](C(=O)N(c4cc(Cl)cc(Cl)c4)[C@H]4CC[C@@H]4O)[C@@H]3OC)nn2)cc(F)c1F [Example 2.3.2, (2R,3R,4S,5R,6R)-N-(3,5-dichlorophenyl)-4-(4-(3,4-difluoro-5-methoxyphenyl)-1H-1,2,3-triazol-1-yl)-5-hydroxy-N-((1S,2S)-2-hydroxycyclobutyl)-6-(hydroxymethyl)-3-methoxytetrahydro-2H-pyran-2-carboxamide]"
15,6.72,"COc1cc(-c2cn([C@H]3[C@@H](O)[C@@H](CO)O[C@@H](C(=O)N(c4cc(Cl)cc(Cl)c4)[C@@H]4CC[C@H]4O)[C@@H]3OC)nn2)cc(F)c1F [Example 2.3.2R, (2R,3R,4S,5R,6R)-N-(3,5-dichlorophenyl)-4-(4-(3,4-difluoro-5-methoxyphenyl)-1H-1,2,3-triazol-1-yl)-5-hydroxy-N-((1R,2R)-2-hydroxycyclobutyl)-6-(hydroxymethyl)-3-methoxytetrahydro-2H-pyran-2-carboxamide]"
16,6.95,"COc1cc(-c2cn([C@H]3[C@@H](O)[C@@H](CO)O[C@@H](C(=O)N(c4cc(Br)cc(Br)c4)[C@H]4CC[C@@H]4O)[C@@H]3OC)nn2)cc(F)c1F [Example 2.3.11, (2R,3R,4S,5R,6R)-N-(3,5-dibromophenyl)-4-(4-(3,4-difluoro-5-methoxyphenyl)-1H-1,2,3-triazol-1-yl)-5-hydroxy-N-((1S,2S)-2-hydroxycyclobutyl)-6-(hydroxymethyl)-3-methoxytetrahydro-2H-pyran-2-carboxamide]"
17,6.59,"COc1cc(-c2cn([C@H]3[C@@H](O)[C@@H](CO)O[C@@H](C(=O)N(c4cc(Br)cc(Br)c4)[C@@H]4CC[C@H]4O)[C@@H]3OC)nn2)cc(F)c1F [Example 2.3.11R, (2R,3R,4S,5R,6R)-N-(3,5-dibromophenyl)-4-(4-(3,4-difluoro-5-methoxyphenyl)-1H-1,2,3-triazol-1-yl)-5-hydroxy-N-((1R,2R)-2-hydroxycyclobutyl)-6-(hydroxymethyl)-3-methoxytetrahydro-2H-pyran-2-carboxamide]"

row,SMILES,pIC50
1,"CO[C@@H]1[C@@H](n2cc(-c3cc(F)c(F)c(F)c3)nn2)[C@@H](O)[C@@H](CO)O[C@H]1C(=O)N(c1cc(Cl)cc(Cl)c1)[C@H]1CC[C@@H]1O [Example 2.1.2, (2R,3R,4S,5R,6R)-N-(3,5-dichlorophenyl)-5-hydroxy-N-((1S,2S)-2-hydroxycyclobutyl)-6-(hydroxymethyl)-3-methoxy-4-(4-(3,4,5-trifluorophenyl)-1H-1,2,3-triazol-1-yl)tetrahydro-2H-pyran-2-carboxamide]",7.29
2,"CO[C@@H]1[C@@H](n2cc(-c3cc(F)c(F)c(F)c3)nn2)[C@@H](O)[C@@H](CO)O[C@H]1C(=O)N(c1cc(Cl)cc(Cl)c1)[C@@H]1CC[C@H]1O [Example 2.1.2R, (2R,3R,4S,5R,6R)-N-(3,5-dichlorophenyl)-5-hydroxy-N-((1R,2R)-2-hydroxycyclobutyl)-6-(hydroxymethyl)-3-methoxy-4-(4-(3,4,5-trifluorophenyl)-1H-1,2,3-triazol-1-yl)tetrahydro-2H-pyran-2-carboxamide]",6.96
